TGI data for twelve compounds are collected here from PubChem BioAssay (NCI).

Among the test systems are NCI-H23 lung; BT-549 breast; SNB-19 CNS; ACHN renal; HL-60(TB) leukemia; MCF7 breast; COLO 205 colon; RPMI-8226 leukemia; CCRF-CEM leukemia; MALME-3M melanoma.
Assay in all cases: growth of human tumour cells (NCI), 48 h

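In this assay, cells in 96-well plates receive the compound at five concentrations for 48 hours. Endpoints are linearly interpolated between the surrounding concentrations. TGI denotes the concentration required for complete inhibition of growth.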

Turning to `C1=C\SS/C=C\SS/1`, the TGI in the assay on NCI-H23 lung is more than 100 µM; in the assay with BT-549 breast, more than 100 µM; with SNB-19 CNS, more than 100 µM; with ACHN renal, more than 100 µM; with HL-60(TB) leukemia, 35.4 µM; with MCF7 breast it was 36.2 µM. For the same compound, the results for the TGI in the assay with COLO 205 colon, with RPMI-8226 leukemia and in the assay on CCRF-CEM leukemia were more than 100 µM, 71.8 µM and 7.09 µM, respectively.
On to `Cc1cnc2c(c1)C(=O)C1=C(C2=O)C2OC(=O)CC2OC1(C)C` (configuration not stated), for which the TGI in the assay with NCI-H23 lung is 0.986 µM; in the assay on BT-549 breast it was 0.363 µM; in the assay with MALME-3M melanoma, 0.191 µM; in the assay on SNB-19 CNS, 2.61 µM; in the assay with ACHN renal, 0.39 µM; with HL-60(TB) leukemia, 0.0142 µM. Moreover, the TGI with MCF7 breast is 0.363 µM; in the assay on COLO 205 colon, 0.326 µM; in the assay on CCRF-CEM leukemia it was 0.151 µM.
As to `CCCCn1c(-c2ccc([N+](=O)[O-])cc2)cs/c1=N/N=C1\C(=O)Nc2ccc(Br)cc21`, the TGI with NCI-H23 lung was 33.1 µM; in the assay on BT-549 breast, 51.6 µM; in the assay with MALME-3M melanoma it was more than 100 µM; with SNB-19 CNS, 69.3 µM; in the assay with ACHN renal, 31.5 µM; in the assay on HL-60(TB) leukemia, 85.9 µM. The TGI is 17.7 µM in the assay with MCF7 breast, 28.7 µM with COLO 205 colon and more than 100 µM with CCRF-CEM leukemia.
For the compound `CCOP(=O)(/C=C\n1ccc(N)nc1=O)OCC`, the TGI with NCI-H23 lung, with BT-549 breast, in the assay on SNB-19 CNS, with ACHN renal, with HL-60(TB) leukemia and with MCF7 breast was more than 100 µM throughout. Also, the TGI with COLO 205 colon, with RPMI-8226 leukemia and in the assay with CCRF-CEM leukemia was more than 100 µM in each case.
On to `COc1cc2ccc1OCc1cccc(n1)COc1ccc(cc1OC)C=Nc1ccc(cc1)N=C2`, for which the TGI in the assay with NCI-H23 lung, with BT-549 breast, in the assay with MALME-3M melanoma, in the assay on SNB-19 CNS, with ACHN renal and in the assay on HL-60(TB) leukemia was more than 100 µM each time. The TGI with MCF7 breast, with COLO 205 colon and in the assay on CCRF-CEM leukemia was more than 100 µM throughout.
Turning to `O=c1cc(-c2cc(O)c(O)c(-c3c(O)cc4oc(-c5ccc(O)c(O)c5)cc(=O)c4c3O)c2)oc2cc(O)cc(O)c12`, the TGI in the assay on NCI-H23 lung, in the assay with BT-549 breast, in the assay on MALME-3M melanoma, in the assay on HL-60(TB) leukemia, in the assay with MCF7 breast and with COLO 205 colon was more than 25 µM each time. In the assay with CCRF-CEM leukemia, this compound displayed a TGI of more than 25 µM.
On to `C\C(=N/N=C1/C(=C\N(C)C)C(=O)NC(=O)N1C)c1ccc(Cl)cc1`, for which the TGI with NCI-H23 lung, in the assay on BT-549 breast, in the assay with MALME-3M melanoma, with SNB-19 CNS, with ACHN renal and in the assay with MCF7 breast was more than 100 µM each time. The TGI with COLO 205 colon, in the assay on RPMI-8226 leukemia and in the assay on CCRF-CEM leukemia was more than 100 µM in each case.
For the compound `CO[C@@H]1O[C@H](C(=O)c2ccccc2)[C@H]2OC(C)(C)O[C@@H]12`, the TGI in the assay with NCI-H23 lung, in the assay with BT-549 breast, with SNB-19 CNS, in the assay on HL-60(TB) leukemia, in the assay with MCF7 breast and in the assay on COLO 205 colon was more than 100 µM throughout. Besides, the TGI in the assay on RPMI-8226 leukemia and in the assay on CCRF-CEM leukemia was more than 100 µM in each case.
On to `CC(=O)OC(Cn1cncn1)(Cn1cncn1)c1ccc(Cl)cc1Cl`, for which the TGI in the assay on BT-549 breast, in the assay with SNB-19 CNS, with HL-60(TB) leukemia, in the assay on MCF7 breast, in the assay on COLO 205 colon and in the assay with RPMI-8226 leukemia was more than 100 µM each time. The same compound showed a TGI in the assay on CCRF-CEM leukemia of more than 100 µM.
As for `O=C1c2ccccc2NC(=S)[C@@H]2CCCN12`, the TGI in the assay on NCI-H23 lung, in the assay on BT-549 breast, with MALME-3M melanoma, in the assay with SNB-19 CNS, in the assay on ACHN renal and with MCF7 breast was more than 100 µM each time. For the same compound, the TGI in the assay on COLO 205 colon, in the assay with RPMI-8226 leukemia and with CCRF-CEM leukemia was more than 100 µM throughout.
As for `CCOC(=O)c1nnsc1NN`, the TGI in the assay on NCI-H23 lung, in the assay on BT-549 breast, in the assay with SNB-19 CNS, in the assay with ACHN renal, in the assay with HL-60(TB) leukemia and with MCF7 breast was more than 100 µM throughout. Besides, the TGI in the assay with COLO 205 colon and in the assay on CCRF-CEM leukemia was more than 100 µM throughout.
As for `CCOC(=O)c1cn2c(n1)sc1cc(Cl)cc(Cl)c12`, the TGI with NCI-H23 lung, with BT-549 breast, in the assay on MALME-3M melanoma, in the assay on SNB-19 CNS, with ACHN renal and in the assay on MCF7 breast was more than 100 µM throughout. Moreover, the TGI in the assay on COLO 205 colon, with RPMI-8226 leukemia and in the assay with CCRF-CEM leukemia was more than 100 µM each time.
